Consider three compounds from patent publication US11944605B2, “Rapamycin analogs and uses thereof” (Janssen Pharmaceutica NV, priority 2018, dated 2024).

“Also recorded” adds a separate entry of the source. Like-named read-outs stand apart in the source and are kept apart here.

The test system of series [1] is mTORC1 pathway (pS6K1 T389) in PC3 cells. The series can be described thus: Western blot, mTORC1 pathway (pS6K1) in PC3 cells. It is filed as cell-based. In short, it runs like this:
(§1)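 Triton lysates analysed by Western blot for pS6K1 and pAkt, detected with IRDye 800 anti-rabbit secondary on a Li-Cor imager.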
For orientation: In western blotting, separated proteins are transferred to a membrane and probed.

Series [2] concerns mTORC2 pathway (Akt phosphorylation) in PC3 cells. The series can be described thus: Western blot, mTORC2 pathway (pAkt) in PC3 cells. In kind it is cell-based. The note with it: for inhibition of mTORC2 (Akt phosphorylation): 24 hours. Put shortly: as §1
Series [3] concerns 4E-BP1 phosphorylation in PC3 cells. The series can be described thus: Western blot, 4E-BP1 phosphorylation in PC3 cells. In kind it is cell-based. To be noted: 24 hours.
For series [4], the system named is mTORC1 pathway in Jurkat cells. The series can be described thus: Western blot, mTORC1 pathway in Jurkat cells. In kind it is cell-based. The note with it: 24 hrs. Here is the method:
(§2) The methods employed were substantially similar to those described above. Compounds were evaluated in PC3 cells, Jurkat cells, wild-type mouse embryotic fibroblast (MEF) cells, tuberous sclerosis 2 (TSC2) negative (TSC −/−) MEF cells, and tuberous sclerosis 2 (TSC2) positive (TSC +/+) MEF cells. Cells were incubated with compounds of the present invention for various time periods (e.g., 5 minutes, 15 minutes, 30 minutes, 90 minutes, 24 hours, or 48 hours), and evaluated according to known methodologies, such as those herein described.

The subject of series [5] is mTORC1 pathway in tuberous sclerosis (TSC2) negative (TSC−/−) MEF cells. Briefly: Western blot, mTORC1 pathway in TSC−/− MEF cells. In kind it is cell-based, mouse. On the procedure:
as §2

Series [6] has as its system mTORC1 pathway in tuberous sclerosis 2 (TSC2) positive (TSC+/+) MEF cells. The series can be described thus: Western blot, mTORC1 pathway in TSC+/+ MEF cells. It is filed as cell-based, mouse. On the procedure:
as §2

For series [7], the system named is 4E-BP1 phosphorylation in TSC+/+ MEF cells. Briefly: Western blot, 4E-BP1 phosphorylation in TSC+/+ MEF cells. To be noted: 24 hours. It is filed as cell-based, mouse. On the procedure: as §2
Series [8] concerns mTORC1 pathway in wild-type MEF cells. Briefly: Western blot, mTORC1 pathway in wild-type MEF cells. It is filed as cell-based, mouse. Here is the method:
as §2

The next series deals with IFN-γ production. The series can be described thus: IFN-γ production in allogenic mixed lymphocyte reaction. It is filed as cell-based. To be noted: for IC50: read-out: IFN-γ Inhibition IC50s. On the procedure:
Assessment of Effect on IFN-γ Production in Allogenic Mixed Lymphocyte Reaction
The effect of rapamycin, everolimus, I-29, and I-117 on IFN-y production was evaluated in an allogenic mixed lymphocyte reaction (E.g., Eleftheriadis, T. et al., Int. J. Mol. Med., 37(5): 1412-20 (2016) https://doi.org/10.3892/ijmm.2016.2547).

Series [9] deals with pS6K1 (p-p70 S6 Kinase (Thr389)) in MCF-7 cells. The series can be described thus: AlphaLISA Ultra pS6K1 Assay. It is filed as cell-based. To be noted: Homo sapiens, 1.5 h; MCF7 cells, 90 min. In short, it runs like this:
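AlphaLISA Ultra read-out (acceptor beads 2 h, then donor beads 2 h) on thawed lysates of MCF-7 cells. Cells had 20–24 h after seeding and a 2 h medium change, then 90 min of compound exposure at 0.5% final DMSO, with lysates stored at −80 °C.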
(In general: In Alpha technology, singlet oxygen from a donor bead excites a nearby acceptor bead.)

Another series deals with mTORC1 over mTORC2. The series can be described thus: mTORC1 selectivity over mTORC2 at 24 hrs (Western blot based pS6K1 and pAKT assay). In kind it is cell-based. The note with it: 24 hrs.
The subject of series [10] is mTORC2 (Akt phosphorylation) in TSC+/+ MEF cells. Briefly: Western blot, mTORC2 pathway (pAkt) in TSC+/+ MEF cells. In kind it is cell-based, mouse. Here is the method: as §2
Series [11] concerns mTORC2 (Akt phosphorylation) in wild-type MEF cells. Briefly: Western blot, mTORC2 pathway (pAkt) in wild-type MEF cells. To be noted: 24 hours. It is filed as cell-based, mouse. Here is the method: as §2
The nature of series [12]: Pharmacokinetic properties in C57Bl/6 mice. It is filed as in vivo. The note with it: for half-life: read-out: Terminal T1/2 (converted). On the procedure: Pharmacokinetic Properties
The pharmacokinetic properties of compounds of the present invention were evaluated in C57Bl/6 mice and compared with rapamycin. Animals were fasted overnight prior to administration of I-29 or rapamycin (1 mg/kg IV, 10 mg/kg PO, or 2 mg/kg IP). Animals were bled at time intervals for up to 48 hours following administration of compounds. Whole blood from each mouse was indivisually collected in polypropylene tubes and immediately centrifuged. Alloquates of the separated plasma were promptly prepared for HPCL analysis.

Series [13] in a line: Glucose tolerance (ipGTT) during chronic treatment in lean C57Bl/6 mice. To be noted: chronic treatment 15 days, I-29 10 mg/kg PO, rapamycin 10 mg/kg IP. It is filed as in vivo. Here is the method:
Assessment of Effect of Chronic Treatment with I-29 on Glucose Tolerance and Insulin Sensitivity in Lean C57Bl/6 Mice
C57Bl/6 mice (n=12; 8 weeks of age) were randomized and baseline measurements (weight, fasting glucose, and fasting insulin) were measured four (4) days prior to the administration of compounds or vehicle. Animals were then treated with I-29 (10 mg/kg PO), rapamycin (10 mg/kg IP) or vehicle (PO or IP) for 19 days. On day 7 and 14 animals were weighed and fed glucose and fed insulin levels were evaluated. Animals were fasted overnight on day 14 and on day 15 fasting insulin and an intraperitoneal glucose tolerance test (ipGTT) were evaluated. On day 19 animals were sacrificed one (1) hour after compound or vehicle administration. Tissues were harvested for evaluating compound levels and pharmacodynamics.

Series [14] deals with T389 of S6K1 (an mTORC1 substrate). To be noted: PC3, HEK-293T, HeLa, and H460 cells, 1 or 24 hour treatments; cited from earlier work.
In series [15] the test system is Akt (an mTORC2 substrate). The note with it: cited from earlier work.
The subject of the next series is Akt phosphorylation. To be noted: mice treated daily for 1 week; cited from earlier work.
Series [16] concerns AKT (PKB) Ser473 phosphorylation. The note with it: human adipocytes, 0.01 μM; cited from earlier work.
Series [17] concerns glucose uptake in human adipocytes. To be noted: 0.01 μM; cited from earlier work.
The next series concerns Lmn−/− mice. To be noted: short-term treatment; cited from earlier work.

Regarding `CO[C@H]1C[C@@H]2CC[C@@H](C)[C@@](O)(O2)C(=O)C(=O)N2CCCC[C@H]2C(=O)O[C@H]([C@H](C)C[C@@H]2CC[C@@H](OCCO)[C@H](OC)C2)CC(=O)[C@H](C)/C=C(\C)[C@@H](O)[C@@H](OC)C(=O)[C@H](C)C[C@H](C)/C=C/C=C/C=C/1C` [Everolimus, everolimus, reference compound], the “inhibition of the mTORC1 pathway” value was “strong inhibition” in [1] (PC3 cells, 90 minutes); “strong inhibition” in series [1] (PC3 cells, 24 hours); “strong inhibition” in series [4]; “strong inhibition” in series [5] (90 minutes); “strong inhibition” in series [5] (24 hours); “strong inhibition” in [6] (90 minutes). For the same compound, the “inhibition of the mTORC1 pathway” value in [6] (24 hours), in [8] (90 minutes) and in series [8] (24 hours) was “strong inhibition” throughout. Further, the “inhibition of mTORC2 (Akt phosphorylation)” value (from here on “inhibition of mTORC2”) in series [2] is on record as “dose dependent inhibition”. Moreover, the “inhibition of 4E-BP1 phosphorylation” value in series [3] and in series [7] was “no inhibition” in each case. Also, the “inhibition of IFN-γ production” value with IFN-γ production is “significantly inhibited”. In addition, in the series on IFN-γ production, the IC50 came out at 15.2 nM.

In the case of `COCCOCCO[C@H]1C[C@@H]2CC[C@@H](C)[C@@](O)(O2)C(=O)C(=O)N2CCCC[C@H]2C(=O)O[C@H]([C@H](C)C[C@@H]2CC[C@@H](OCCO)[C@H](OC)C2)CC(=O)[C@H](C)/C=C(\C)[C@@H](O)[C@@H](OC)C(=O)[C@H](C)C[C@H](C)/C=C/C=C/C=C/1C` [I-105, (22E,24E,26E,27E,35R,36S,37R,38R,40S,42S,44S,45S,46R,47R,56R)-46, 56-dihydroxy-45-[(1R)-2-[(1S,3R, 4R)-4-(2-hydroxyethoxy)-3-methoxy-cyclohexyl]-1-methyl-ethyl]-47-methoxy-44-[2-(2-methoxyethoxy)ethoxy]-35,36,37,38,48,49-hexamethyl-66, 67-dioxa-57-azatricyclohexatriaconta-22,24,26(48),27(49)-tetraene-50, 51,52,53,54-pentone], the IC50 in [9] is < 0.1 nM. The “mTORC1 selective @ 24 hrs” value in the series on mTORC1 over mTORC2 was “YES”. In addition, the “inhibition of the mTORC1 pathway” value is reported as “strong inhibition” in series [6] (90 minutes), “strong inhibition” in series [6] (24 hours) and “moderate inhibition; also recorded: strong inhibition” in series [8] (24 hours). Further, the results for the “inhibition of mTORC2” value in [10] (90 minutes), in series [10] (24 hours) and in series [11] were “does not inhibit”, “do not inhibit” and “do not inhibit”, respectively. Further, in series [7], the “inhibition of 4E-BP1 phosphorylation” value is reported as “no inhibition”.

For the compound `CO[C@H]1C[C@@H]2CC[C@@H](C)[C@@](O)(O2)C(=O)C(=O)N2CCCC[C@H]2C(=O)O[C@H]([C@H](C)C[C@@H]2CC[C@@H](O)[C@H](OC)C2)CC(=O)[C@H](C)/C=C(\C)[C@@H](O)[C@@H](OC)C(=O)[C@H](C)C[C@H](C)/C=C/C=C/C=C/1C` [Rapamycin, rapamycin], the “inhibition of the mTORC1 pathway (pS6K1)” value in series [1] (PC3 cells, 24 and 48 hours) is “significant reduction; also recorded: strong inhibition”. Besides, the “inhibition of the mTORC1 pathway” value in [1] (PC3 cells, 30, 15, or 5 minutes) is “time dependent inhibition”; in series [1] (PC3 cells, 90 minutes), “strong inhibition”; in [1] (PC3 cells, 24 hours) it was “strong inhibition”; in series [5] (24 hours), “strong inhibition”; in series [6] (90 minutes) it was “strong inhibition”; in series [6] (24 hours), “strong inhibition”. In series [2] (24 and 48 hours), the “inhibition of the mTORC2 pathway (Akt phosphorylation)” value was “inhibition; also recorded: inhibited”. In addition, the “inhibition of mTORC2” value in series [2] is “dose dependent inhibition”. Also, the “inhibition of 4E-BP1 phosphorylation” value in [3] was “no inhibition”. The F in series [12] (2 mg/kg IP) is 35.1%; in series [12] (10 mg/kg PO), 0.8%. Further, the AUC(0-inf) – broadly, the area under the concentration-time curve extrapolated to infinity – turned out to be 3630 ng·h/mL in series [12] (mouse, plasma, 1 mg/kg IV) and 2540 ng·h/mL in series [12] (mouse, plasma, 2 mg/kg IP). The AUC(0-t) (in general, the area under the concentration-time curve up to a stated or last time point) in [12] (mouse, plasma, 1 mg/kg IV) stood at 3620 ng·h/mL; in series [12] (mouse, plasma, 2 mg/kg IP), 2480 ng·h/mL; in series [12] (mouse, plasma, 10 mg/kg PO), 292 ng·h/mL. For the same compound, in series [12] (mouse, plasma, 1 mg/kg IV), the MRT inf (as a rule, a mean duration of stay, worked out from the concentration-time curve) stood at 6.27 h. The clearance (usually the rate of elimination divided by the concentration) in series [12] (mouse, plasma, 1 mg/kg IV) is 4.6 mL/min/kg. For the same compound, the half-life was 8.35 h in [12] (mouse, plasma, 1 mg/kg IV) and 4.8 h in series [12] (mouse, plasma, 2 mg/kg IP). In addition, the Vd in [12] (mouse, plasma, 1 mg/kg IV, read-out: Vss) amounted to 1.73 L/kg. In addition, the Cmax – broadly, the maximum level reached in the sampled fluid or tissue – in series [12] (mouse, plasma, 2 mg/kg IP) worked out at 614 ng/mL; in [12] (mouse, plasma, 10 mg/kg PO), 52.8 ng/mL. Besides, the Tmax (commonly the time from dosing to the highest level) in [12] (mouse, plasma, 2 mg/kg IP) came to 0.25 h; in [12] (mouse, plasma, 10 mg/kg PO), 3 h. Further, in series [13], the “glucose intolerance in intraperitoneal glucose tolerance test (ipGTT)” value is “induced glucose intolerance”. Besides, the “inhibition of IFN-γ production” value in the series with IFN-γ production was “significantly inhibited”. Besides, the IC50 in the series with IFN-γ production is 2.4 nM. Further, in [14], the S6K1 phosphorylation result is listed as “inhibited”. In addition, in series [15] (HEK-293T cells), the “inhibition of pAKT” value is “Partial inhibition”. Moreover, the Akt phosphorylation entry is given as “increase” in series [15] (HeLa cells) and “strongly decreased” in series [15] (PC3 cells). Further, the “Akt phosphorylation in the thymus, adipose tissue, heart, and lung” value with Akt phosphorylation is recorded as “decreased”. In [16], the “AKT (PKB) Ser473 phosphorylation” value was “reduced”. In addition, the glucose uptake result in series [17] is “reduced”. For the same compound, the enhanced survival in the series on Lmn−/− mice was ~50%.
